Measured values reported in patent US12606528B2, “Methods and materials for inhibiting NF-kB activity” (University of Pittsburgh - Of the Commonwealth System of …, priority 2019, dated 2026).
Read-outs that look alike come from different tables or passages of the source.

Legend:
NF-κB = NF-κB assay: THP1-NF-κB-LUC cells, LPS-stimulated secreted luciferase; type: cell-based; settings: THP1-NF-κB-LUC cells, read-out: IC50 (NF-κB assay)
Outline: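 THP1-NF-κB-LUC cells (25k/well) were pretreated with compounds for 2 h, then stimulated with LPS (10 ng/mL) for 18 h. Secreted luciferase was measured and normalized to vehicle, and IC50 was fitted from the concentration series.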

TNF release = assay: TNF assay: TNF release from LPS-stimulated human PBMCs (TNF ELISA); type: cell-based; settings: PBMC, read-out: IC50 (TNF assay)
Outline: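 Human PBMCs at 10k/well pretreated with compound dilutions 2 h, then stimulated with LPS (10 ng/mL) for 18 h. TNF in supernatants quantified by ELISA; IC50 for inhibition of TNF release fitted from concentration–response.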

[1] = LPS-stimulated human PBMCs, TNF ELISA
[2] = compounds 2 hours before LPS (10 ng/mL) for 18 hours, secreted luciferase
[3] = human PBMCs, compounds 2 hours before LPS (10 ng/ml) for 18 hours, supernatant TNF ELISA

SMILES	IC50 (NF-κB; LPS-stimulated)	IC50 (TNF release; [1])	IC50 (NF-κB; [2])	IC50 (TNF release; [3])
O=C(NCCO)c1ccc2nc(-c3ccc(Cl)cc3)c(-c3ccc(Cl)cc3)nc2c1 [BC19452]	0.1 to 1 µM	> 10 µM		
O=C(NCCO)c1ccc2nc(-c3ccc(OC(F)(F)F)cc3)c(-c3ccc(OC(F)(F)F)cc3)nc2c1 [BC19453]	> 10 µM	> 10 µM		
O=c1[nH]ccc2cc([S+]([O-])c3ccccc3)ccc12 (stereo not shown) [BC19454]			> 10 µM	> 10 µM
COc1ccc(S(=O)(=O)c2cnccc2O)cc1OC [BC19455]			> 10 µM	> 10 µM
O=S(=O)(c1ccc(Cl)cc1)c1cnccc1O [BC19456]			> 10 µM	> 10 µM
COc1ccc(S(=O)(=O)c2cnccc2O)cc1 [BC19457]			> 10 µM	> 10 µM
Cc1ccc([S+]([O-])c2cnccc2O)c(C)c1 (stereo not shown) [BC19458]			> 10 µM	> 10 µM
O=S(=O)(c1ccc(F)cc1)c1cnccc1O [BC19459]			> 10 µM	> 10 µM
O=S(=O)(c1ccccc1)c1cnccc1O [BC19461]			> 10 µM	> 10 µM
COc1cccc(-c2nc(S(=O)(=O)c3ccc(Cl)cc3)c([S+]([O-])CC3CC3)[nH]2)c1 (stereo not shown) [BC19462]	1 to 10 µM	> 10 µM		
CC(C)C[S+]([O-])c1oc(-c2ccc(Cl)cc2)nc1S(=O)(=O)c1ccc(Cl)cc1 (stereo not shown) [BC19463]	< 0.1 µM	0.1 to 1 µM		
O=S(=O)(c1ccc(Cl)cc1)c1nc(-c2ccc(Cl)cc2)oc1[S+]([O-])CC1CC1 (stereo not shown) [BC19464]	0.1 to 1 µM	< 0.1 µM		
CCC[S+]([O-])c1[nH]c(-c2ccccc2)nc1S(=O)(=O)c1ccc(Cl)cc1 (stereo not shown) [BC19465]	1 to 10 µM	> 10 µM		
O=S(=O)(c1ccc(Cl)cc1)c1nc(-c2ccccc2)[nH]c1[S+]([O-])CC1CC1 (stereo not shown) [BC19466]	1 to 10 µM	> 10 µM		
O=S(=O)(CC1CC1)c1[nH]c(-c2ccccc2)nc1S(=O)(=O)c1ccc(Cl)cc1 [BC19467]	1 to 10 µM	1 to 10 µM		
COCCS(=O)(=O)c1[nH]c(-c2ccccc2)nc1S(=O)(=O)c1ccc(Cl)cc1 [BC19468]	1 to 10 µM	> 10 µM		
O=S(=O)(c1ccc(F)cc1)c1nc(-c2ccccc2)[nH]c1[S+]([O-])CC1CC1 (stereo not shown) [BC19469]	1 to 10 µM	> 10 µM		
O=S(=O)(CC1CC1)c1[nH]c(-c2ccccc2)nc1S(=O)(=O)c1ccc(F)cc1 [BC19470]	> 10 µM	> 10 µM		
CS(=O)(=O)c1sc(-c2ccccc2)nc1S(=O)(=O)c1ccc(Cl)cc1 [BC19471]	1 to 10 µM	1 to 10 µM		

SMILES	IC50 (NF-κB; LPS-stimulated)	IC50 (TNF release; [1])	IC50 (NF-κB; [2])	IC50 (TNF release; [3])
CCC[S+]([O-])c1sc(-c2ccccc2)nc1S(=O)(=O)c1ccc(Cl)cc1 (stereo not shown) [BC19472]	> 10 µM	> 10 µM		
CC(C)CS(=O)(=O)c1sc(-c2ccccc2)nc1S(=O)(=O)c1ccc(Cl)cc1 [BC19473]	> 10 µM	> 10 µM		
CN(C)CC[S+]([O-])c1sc(-c2ccccc2)nc1S(=O)(=O)c1ccc(Cl)cc1 (stereo not shown) [BC19474]	1 to 10 µM	> 10 µM		
CCCS(=O)(=O)c1sc(-c2cccc(F)c2)nc1S(=O)(=O)c1ccc(Cl)cc1 [BC19475]	1 to 10 µM	1 to 10 µM		
CC(C)S(=O)(=O)c1sc(-c2cccc(F)c2)nc1S(=O)(=O)c1ccc(Cl)cc1 [BC19476]	> 10 µM	> 10 µM		
CC(C)CS(=O)(=O)c1sc(-c2cccc(F)c2)nc1S(=O)(=O)c1ccc(Cl)cc1 [BC19477]	> 10 µM	> 10 µM		
O=S(=O)(c1ccc(Cl)cc1)c1nc(-c2cccc(F)c2)sc1[S+]([O-])CC1CC1 (stereo not shown) [BC19478]	> 10 µM	1 to 10 µM		
COCC[S+]([O-])c1sc(-c2ccc(Cl)cc2)nc1S(=O)(=O)c1ccc(Cl)cc1 (stereo not shown) [BC19479]	> 10 µM	> 10 µM		
CC(C)[S+]([O-])c1sc(-c2ccc(Cl)cc2)nc1S(=O)(=O)c1ccc(Cl)cc1 (stereo not shown) [BC19480]	> 10 µM	> 10 µM		
CS(=O)(=O)c1cc2c(c(S(=O)(=O)Nc3ccc(F)c(F)c3)c1)OCC(=O)N2 [BC19481]			< 0.1 µM	> 10 µM
CS(=O)(=O)c1cc2c(c(S(=O)(=O)Nc3ccccc3)c1)OCC(=O)N2 [BC19482]			0.1 to 1 µM	> 10 µM
CS(=O)(=O)c1cc2c(c(S(=O)(=O)Nc3ccc(Cl)cc3)c1)OCC(=O)N2 [BC19483]			< 0.1 µM	> 10 µM
CCc1ccc(NS(=O)(=O)c2cc(S(C)(=O)=O)cc3c2OCC(=O)N3)cc1 [BC19484]			< 0.1 µM	> 10 µM
COc1ccc(NS(=O)(=O)c2cc(S(C)(=O)=O)cc3c2OCC(=O)N3)cc1 [BC19485]			< 0.1 µM	> 10 µM
Cc1ccc(NS(=O)(=O)c2cc(S(C)(=O)=O)cc3c2OCC(=O)N3)cc1Cl [BC19486]			< 0.1 µM	> 10 µM
CCc1cccc(NS(=O)(=O)c2cc(S(C)(=O)=O)cc3c2OCC(=O)N3)c1 [BC19487]			0.1 to 1 µM	> 10 µM
Cc1ccc(NS(=O)(=O)c2cc(S(C)(=O)=O)cc3c2OCC(=O)N3)cc1 [BC19488]			< 0.1 µM	> 10 µM
Cc1c(Cl)cc2c(c1S(=O)(=O)Nc1ccc(F)c(F)c1)OCC(=O)N2 [BC19489]			< 0.1 µM	> 10 µM
Cc1c(Cl)cc2c(c1S(=O)(=O)Nc1ccc(OC(F)(F)F)cc1)OCC(=O)N2 [BC19490]			< 0.1 µM	> 10 µM

SMILES	IC50 (NF-κB; LPS-stimulated)	IC50 (TNF release; [1])	IC50 (NF-κB; [2])	IC50 (TNF release; [3])
CCS(=O)(=O)c1cc2c(c(S(=O)(=O)Nc3ccc(Cl)cc3)c1)OCC(=O)N2 [BC19491]			< 0.1 µM	> 10 µM
CCc1ccc(NS(=O)(=O)c2cc(S(=O)(=O)CC)cc3c2OCC(=O)N3)cc1 [BC19492]			< 0.1 µM	> 10 µM
CCS(=O)(=O)c1cc2c(c(S(=O)(=O)Nc3ccc(C(C)C)cc3)c1)OCC(=O)N2 [BC19493]			< 0.1 µM	> 10 µM
COCC(=O)N1CCC(C(=O)Cc2ccc3nc(-c4ccc(F)cc4)c(-c4ccc(F)cc4)nc3n2)CC1 [BC19494]	0.1 to 1 µM	> 10 µM		
N#Cc1cnc2nc(-c3ccc(F)cc3)c(-c3ccc(F)cc3)nc2c1 [BC19495]	0.1 to 1 µM	> 10 µM		
Cn1cnnc1-c1cnc2nc(-c3ccc(F)cc3)c(-c3ccc(F)cc3)nc2c1 [BC19496]	< 0.1 µM	> 10 µM		
O=C(NCCN1CCOCC1)c1ccc2nc(-c3ccc(Cl)cc3)c(-c3ccc(Cl)cc3)nc2c1 [BC19497]	< 0.1 µM	> 10 µM		
CN1CCN(C(=O)c2ccc3nc(-c4cccc(N(C)C)c4)c(-c4cccc(N(C)C)c4)nc3c2)CC1 [BC19498]	> 10 µM	> 10 µM		
C#CCNC(=O)c1ccc2nc(-c3cccc(N(C)C)c3)c(-c3cccc(N(C)C)c3)nc2c1 [BC19499]	1 to 10 µM	> 10 µM		
CN(C)c1cccc(-c2nc3ccc(C(=O)O)cc3nc2-c2cccc(N(C)C)c2)c1 [BC19500]	> 10 µM	> 10 µM		
CN(C)c1cccc(-c2nc3ccc(C(=O)NCCN4CCOCC4)cc3nc2-c2cccc(N(C)C)c2)c1 [BC19501]	> 10 µM	> 10 µM		
CN(C)c1cccc(-c2nc3ccc(C(=O)NCCO)cc3nc2-c2cccc(N(C)C)c2)c1 [BC19502]	> 10 µM	> 10 µM		
O=C(NCCN1CCOCC1)c1ccc2nc(-c3ccc(OC(F)(F)F)cc3)c(-c3ccc(OC(F)(F)F)cc3)nc2c1 [BC19503]	1 to 10 µM	1 to 10 µM		
O=S(=O)(NCCN1CCOCC1)c1ccc2nc(-c3ccc(F)cc3)c(-c3ccc(F)cc3)nc2c1 [BC19504]	0.1 to 1 µM	> 10 µM		
O=S(=O)(NC1CC1)c1ccc2nc(-c3ccc(F)cc3)c(-c3ccc(F)cc3)nc2c1 [BC19505]	0.1 to 1 µM	> 10 µM		
O=S(=O)(NCC1CC1)c1ccc2nc(-c3ccc(F)cc3)c(-c3ccc(F)cc3)nc2c1 [BC19506]	0.1 to 1 µM	> 10 µM		
COCCNS(=O)(=O)c1ccc2nc(-c3ccc(F)cc3)c(-c3ccc(F)cc3)nc2c1 [BC19507]	< 0.1 µM	> 10 µM		
O=S(=O)(CCCCN1CCOCC1)c1ccc2nc(-c3ccc(F)cc3)c(-c3ccc(F)cc3)nc2c1 [BC19508]	0.1 to 1 µM	1 to 10 µM		
